Source: patent US9302999B2, “Substituted triazoles as herbicides” (E. I. DU PONT DE NEMOURS AND COMPANY, priority 2012, dated 2016)

Legend:
Type in all cases: in vivo
[1] = system: barnyardgrass (Echinochloa crus-galli); experiment: Test A pre-/postemergence: barnyardgrass
From the text: (§1) Seeds of barnyardgrass (Echinochloa crus-galli), crabgrass, large (large crabgrass, Digitaria sanguinalis), foxtail, giant (giant foxtail, Setaria faberii), morningglory (Ipomoea spp.), pigweed (Amaranthus retroflexus), velvetleaf (Abutilon theophrasti), wheat (Triticum aestivum), and corn (Zea mays) were planted into a blend of loam soil and sand and treated preemergence with a directed soil spray using test chemicals formulated in a non-phytotoxic solvent mixture which included a surfactant. At the same time these species were also treated with postemergence applications of test chemicals formulated in the same manner.
(§2) Plants ranged in height from two to ten cm and were in the one- to two-leaf stage for the postemergence treatment. Treated plants and untreated controls were maintained in a greenhouse for approximately ten days, after which time all treated plants were compared to untreated controls and visually evaluated for injury. Plant response ratings, summarized in Table A, are based on a 0 to 100 scale where 0 is no effect and 100 is complete control. A dash (-) response means no test result.

[2] = system: pigweed (Amaranthus retroflexus); experiment: Test A pre-/postemergence: pigweed
From the text: as §1, §2

[3] = system: crabgrass, large (large crabgrass, Digitaria sanguinalis); experiment: Test A pre-/postemergence: crabgrass, large
From the text: as §1, §2

[4] = system: wheat (Triticum aestivum); experiment: Test A pre-/postemergence: wheat
From the text: as §1, §2

corn (Zea mays) = experiment: Test A pre-/postemergence: corn
From the text: as §1, §2

[5] = system: morningglory (Ipomoea spp.); experiment: Test A pre-/postemergence: morningglory
From the text: as §1, §2

[6] = system: velvetleaf (Abutilon theophrasti); experiment: Test A pre-/postemergence: velvetleaf
From the text: as §1, §2

[7] = system: foxtail, giant (giant foxtail, Setaria faberii); experiment: Test A pre-/postemergence: foxtail, giant
From the text: as §1, §2

[8] = Postemergence, 125 g ai/ha, 0 to 100 scale, 0 is no effect, 100 is complete control
[9] = Postemergence, 500 g ai/ha, visual rating on 0 to 100 scale (0 no effect, 100 complete control), approximately ten days
[10] = Preemergence, 125 g ai/ha, 0 to 100 scale (0 no effect, 100 complete control)
[11] = Preemergence, 500 g ai/ha, 0 to 100 scale, 0 is no effect, 100 is complete control
[12] = Postemergence, 1000 g ai/ha, visual rating on 0 to 100 scale (0 no effect, 100 complete control), approximately ten days
[13] = Preemergence, 1000 g ai/ha, 0 to 100 scale, 0 is no effect, 100 is complete control
[14] = Preemergence, 125 g ai/ha, 0 to 100 scale where 0 is no effect and 100 is complete control
[15] = Preemergence, 500 g ai/ha, 0 to 100 scale (0 no effect, 100 complete control)

Cc1nn(-c2ccc(C(F)(F)F)cc2)nc1Nc1cccc(C(F)(F)F)c1 [Compound 69]
20: Crabgrass, Large plant response rating [3, 9] | Corn plant response rating (corn (Zea mays); [9]) | Morningglory plant response rating [5, 8] | Velvetleaf plant response rating [6, 9]
0: Plant response rating, Barnyardgrass [1, 10] | Plant response rating, Barnyardgrass [1, 11] | Plant response rating, Pigweed [2, 10] | Plant response rating, Crabgrass, Large [3, 10] | Wheat plant response rating [4, 8] | Plant response rating, Wheat [4, 10] | Plant response rating, Wheat [4, 11] | Plant response rating, Corn (corn (Zea mays); [10]) | Plant response rating, Corn (corn (Zea mays); [11]) | Plant response rating, Morningglory [5, 10] | Plant response rating, Morningglory [5, 11] | Plant response rating, Velvetleaf [6, 10] | Plant response rating, Velvetleaf [6, 11] | Plant response rating, Foxtail, Giant [7, 10] | Plant response rating, Foxtail, Giant [7, 11]
10: Barnyardgrass plant response rating [1, 8] | Barnyardgrass plant response rating [1, 9] | Plant response rating, Pigweed [2, 11] | Crabgrass, Large plant response rating [3, 8] | Plant response rating, Crabgrass, Large [3, 11] | Wheat plant response rating [4, 9] | Corn plant response rating (corn (Zea mays); [8]) | Velvetleaf plant response rating [6, 8] | Foxtail, Giant plant response rating [7, 8] | Foxtail, Giant plant response rating [7, 9]
90: Pigweed plant response rating [2, 9]
30: Pigweed plant response rating [2, 8] | Morningglory plant response rating [5, 9]

Cc1nn(-c2ccc(F)cc2)nc1Cn1nc(C(F)(F)F)cc1C [Compound 97]
20: Foxtail, Giant plant response rating [7, 12] | Foxtail, Giant plant response rating [7, 13]
30: Barnyardgrass plant response rating [1, 12] | Barnyardgrass plant response rating [1, 13]
50: Velvetleaf plant response rating [6, 12]
40: Crabgrass, Large plant response rating [3, 13] | Morningglory plant response rating [5, 12]
0: Pigweed plant response rating [2, 13] | Wheat plant response rating [4, 12] | Wheat plant response rating [4, 13] | Corn plant response rating (corn (Zea mays); [13]) | Morningglory plant response rating [5, 13] | Velvetleaf plant response rating [6, 13]
60: Pigweed plant response rating [2, 12] | Crabgrass, Large plant response rating [3, 12]
10: Corn plant response rating (corn (Zea mays); [12])

Cc1nn(-c2ccc(F)cc2)nc1Oc1nccc(C(F)(F)F)n1 [Compound 102]
10: Pigweed plant response rating [2, 8] | Crabgrass, Large plant response rating [3, 9]
0: Barnyardgrass plant response rating [1, 8] | Barnyardgrass plant response rating [1, 9] | Plant response rating, Barnyardgrass [1, 10] | Plant response rating, Barnyardgrass [1, 11] | Plant response rating, Pigweed [2, 14] | Plant response rating, Pigweed [2, 11] | Crabgrass, Large plant response rating [3, 8] | Plant response rating, Crabgrass, Large [3, 10] | Plant response rating, Crabgrass, Large [3, 11] | Wheat plant response rating [4, 8] | Wheat plant response rating [4, 9] | Plant response rating, Wheat [4, 14] | Plant response rating, Wheat [4, 11] | Corn plant response rating (corn (Zea mays); [8]) | Corn plant response rating (corn (Zea mays); [9]) | Plant response rating, Corn (corn (Zea mays); [10]) | Plant response rating, Corn (corn (Zea mays); [11]) | Morningglory plant response rating [5, 8] | Morningglory plant response rating [5, 9] | Plant response rating, Morningglory [5, 14] | Plant response rating, Morningglory [5, 11] | Velvetleaf plant response rating [6, 8] | Velvetleaf plant response rating [6, 9] | Plant response rating, Velvetleaf [6, 14] | Plant response rating, Velvetleaf [6, 11] | Foxtail, Giant plant response rating [7, 8] | Foxtail, Giant plant response rating [7, 9] | Plant response rating, Foxtail, Giant [7, 14] | Plant response rating, Foxtail, Giant [7, 11]
70: Pigweed plant response rating [2, 9]

Cc1nn(-c2ccc(C(F)(F)F)cc2)nc1Oc1cc(C(F)(F)F)nn1C [Compound 104]
70: Pigweed plant response rating [2, 8] | Crabgrass, Large plant response rating [3, 9]
10: Plant response rating, Barnyardgrass [1, 10] | Corn plant response rating (corn (Zea mays); [8])
20: Barnyardgrass plant response rating [1, 8] | Plant response rating, Barnyardgrass [1, 11] | Corn plant response rating (corn (Zea mays); [9]) | Foxtail, Giant plant response rating [7, 8]
100: Pigweed plant response rating [2, 9]
30: Barnyardgrass plant response rating [1, 9] | Plant response rating, Pigweed [2, 14] | Velvetleaf plant response rating [6, 8] | Plant response rating, Velvetleaf [6, 11]
90: Plant response rating, Pigweed [2, 11] | Plant response rating, Crabgrass, Large [3, 11] | Morningglory plant response rating [5, 9] | Plant response rating, Foxtail, Giant [7, 11]
0: Wheat plant response rating [4, 8] | Wheat plant response rating [4, 9] | Plant response rating, Wheat [4, 14] | Plant response rating, Wheat [4, 11] | Plant response rating, Corn (corn (Zea mays); [10]) | Plant response rating, Corn (corn (Zea mays); [11]) | Plant response rating, Morningglory [5, 14] | Plant response rating, Morningglory [5, 11] | Plant response rating, Velvetleaf [6, 14]
60: Plant response rating, Crabgrass, Large [3, 10] | Morningglory plant response rating [5, 8] | Velvetleaf plant response rating [6, 9] | Plant response rating, Foxtail, Giant [7, 14]
50: Crabgrass, Large plant response rating [3, 8] | Foxtail, Giant plant response rating [7, 9]

CCc1nn(-c2ccc(C(F)(F)F)cc2)nc1Cn1cnc(C(F)(F)F)c1Cl [Compound 121]
10: Crabgrass, Large plant response rating [3, 9] | Plant response rating, Crabgrass, Large [3, 15] | Corn plant response rating (corn (Zea mays); [9]) | Velvetleaf plant response rating [6, 9]
20: Pigweed plant response rating [2, 9]
0: Barnyardgrass plant response rating [1, 8] | Barnyardgrass plant response rating [1, 9] | Plant response rating, Barnyardgrass [1, 14] | Plant response rating, Barnyardgrass [1, 15] | Pigweed plant response rating [2, 8] | Plant response rating, Pigweed [2, 14] | Plant response rating, Pigweed [2, 15] | Crabgrass, Large plant response rating [3, 8] | Plant response rating, Crabgrass, Large [3, 14] | Wheat plant response rating [4, 8] | Wheat plant response rating [4, 9] | Plant response rating, Wheat [4, 14] | Plant response rating, Wheat [4, 15] | Corn plant response rating (corn (Zea mays); [8]) | Plant response rating, Corn (corn (Zea mays); [14]) | Plant response rating, Corn (corn (Zea mays); [15]) | Morningglory plant response rating [5, 8] | Morningglory plant response rating [5, 9] | Plant response rating, Morningglory [5, 14] | Plant response rating, Morningglory [5, 15] | Velvetleaf plant response rating [6, 8] | Plant response rating, Velvetleaf [6, 14] | Plant response rating, Velvetleaf [6, 15] | Foxtail, Giant plant response rating [7, 8] | Foxtail, Giant plant response rating [7, 9] | Plant response rating, Foxtail, Giant [7, 14] | Plant response rating, Foxtail, Giant [7, 15]

Cc1nn(-c2ccc(F)cc2)nc1Oc1cccc(C(F)(F)F)n1 [Compound 127]
0: Plant response rating, Barnyardgrass [1, 14] | Plant response rating, Pigweed [2, 14] | Wheat plant response rating [4, 8] | Plant response rating, Wheat [4, 14] | Plant response rating, Wheat [4, 15] | Plant response rating, Corn (corn (Zea mays); [14]) | Plant response rating, Corn (corn (Zea mays); [15]) | Plant response rating, Morningglory [5, 14] | Plant response rating, Morningglory [5, 15] | Plant response rating, Velvetleaf [6, 14] | Plant response rating, Velvetleaf [6, 15]
60: Pigweed plant response rating [2, 9]
20: Barnyardgrass plant response rating [1, 9] | Plant response rating, Pigweed [2, 15] | Corn plant response rating (corn (Zea mays); [9]) | Morningglory plant response rating [5, 8] | Velvetleaf plant response rating [6, 8] | Velvetleaf plant response rating [6, 9] | Foxtail, Giant plant response rating [7, 9]
30: Crabgrass, Large plant response rating [3, 9] | Morningglory plant response rating [5, 9] | Plant response rating, Foxtail, Giant [7, 15]
10: Barnyardgrass plant response rating [1, 8] | Plant response rating, Barnyardgrass [1, 15] | Crabgrass, Large plant response rating [3, 8] | Plant response rating, Crabgrass, Large [3, 14] | Wheat plant response rating [4, 9] | Corn plant response rating (corn (Zea mays); [8]) | Foxtail, Giant plant response rating [7, 8] | Plant response rating, Foxtail, Giant [7, 14]
40: Pigweed plant response rating [2, 8] | Plant response rating, Crabgrass, Large [3, 15]
